Here are results for four molecules from ChEMBL document CHEMBL1764960, “Stereochemical investigations of isochromenones and isobenzofuranones isolated from Leptosphaeria sp. KTC 727” (J Nat Prod, 2011).

Structures are written as SMILES. Converted amounts (≈) assume the structure as drawn.

This test has as its system Bipolaris oryzae. The test can be described thus: Antifungal activity against Cochliobolus miyabeanus assessed as hyphal growth inhibition after 36 hrs. The class given is functional, organism-based.
Turning to `C=C1OC(=O)c2c(O)cc(OC)c(C)c2[C@@]1(C)O`, the IC50 is 0.5 µg/mL (≈ 2 µM).

Consider `C=C1OC(=O)c2c(O)cc(O)c(C)c2[C@@]1(C)O`, for which the IC50 amounted to 10 µg/mL (≈ 42.3 µM).

With `COc1cc(O)c2c(c1C)[C@](C)(C(C)=O)OC2=O`, the half-maximal inhibitory concentration (IC50) came out at 10 µg/mL (≈ 40 µM).

For the molecule `COc1cc(O)c2c(c1C)[C@](C)([C@H](C)O)OC2=O`, the IC50 stood at 500 µg/mL (≈ 1980 µM).

The IC50 is the point on the concentration scale where inhibition reaches its midpoint.
